Counter-ions that a name gives are not always drawn.
How the values were obtained:
[1] = moisture absorption during storage; format: physicochemical; details: for color change due to moisture absorption: hydrochloride
Procedure: With regard to moisture absorption, α form crystal undergoes increase in weight by moisture absorption of 0.85 to 2% during storage for 14 days under the conditions of 25° C. and at relative humidity of 20 to 75%. […] On the other hand, weight of the β form crystal gradually increases under the conditions of 25° C. and a relative humidity of 60%, and weight increase is 3.5% at 18 hours and the increase continues to the maximum of 3.9%. From this, α form crystal is more moisture-stable than β form. […] Accordingly, α form crystal is suitable for storage.

[2] = format: physicochemical
Procedure: Furthermore, in differential thermal analysis, α form crystal has only one endothermic peak near the 250° C. as shown in FIG. 5 while β form crystal has two endothermic peaks near 180° C. and near 230° C. as shown in FIG. 6.

Structure (SMILES)	weight increase by moisture absorption ([1]; 25° C., relative humidity of 60%, at 18 hours)	maximum weight increase by moisture absorption ([1]; 25° C., relative humidity of 60%, maximum)	color change due to moisture absorption [1]	course of weight increase over storage ([1]; 25° C., relative humidity of 20 to 75%, day 1 to day 14)	endothermic peak in differential thermal analysis (thermal stability) [2]
C[C@H](O)[C@H](O)[C@H]1CNc2nc(N)[nH]c(=O)c2N1 [β form crystal, sapropterin hydrochloride]	3.5%	3.9%	changes the color from white to pale yellow		
C[C@H](O)[C@H](O)[C@H]1CNc2nc(N)[nH]c(=O)c2N1 [α form crystal, sapropterin hydrochloride]			does not change its color	stable from day 1 to day 14	~250 °C
